Source: PubChem BioAssay (NCI)
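Step 1: Grow cells in 96-well plates. Step 2: Expose to compound for 48 hours at 5 concentrations. Step 3: Interpolate endpoints linearly; if unreached, use highest concentration. TGI marks complete inhibition of growth.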

What was measured:
Experiment in all cases: NCI anticancer screen, dose series, 48 h
[1] = test system: SNB-75 CNS
[2] = test system: MALME-3M melanoma
[3] = test system: IGROV1 ovarian
[4] = test system: NCI-H23 lung
[5] = test system: EKVX NSCLC
[6] = test system: KM12 colon
[7] = test system: SF-295 CNS
[8] = test system: TK-10 renal
[9] = test system: RPMI-8226 leukemia
[10] = test system: LXFL 529 NSCLC
[11] = test system: SF-268 CNS
[12] = test system: SK-MEL-28 melanoma
[13] = test system: HT29 colon
[14] = test system: OVCAR-3 ovarian
[15] = test system: COLO 205 colon
[16] = test system: ACHN renal
[17] = test system: SF-539 CNS
[18] = test system: HOP-18 NSCLC
[19] = test system: OVCAR-4 ovarian
[20] = test system: CAKI-1 renal
[21] = test system: SK-MEL-2 melanoma
[22] = test system: DMS 273 small cell lung
[23] = test system: KM20L2 colon
[24] = test system: XF 498 CNS
[25] = test system: UACC-62 melanoma
[26] = test system: SNB-78 CNS
[27] = test system: MOLT-4 leukemia
[28] = test system: OVCAR-5 ovarian
[29] = test system: M14 melanoma
[30] = test system: SW-620 colon
[31] = test system: HCT-116 colon
[32] = test system: HCC-2998 colon
[33] = test system: OVCAR-8 ovarian
[34] = test system: SNB-19 CNS
[35] = test system: RXF 393 renal
[36] = test system: UO-31 renal
[37] = test system: SK-MEL-5 melanoma
[38] = test system: SN12C renal
[39] = test system: M19-MEL melanoma
[40] = test system: K-562 leukemia
[41] = test system: HL-60(TB) leukemia
[42] = test system: SK-OV-3 ovarian
[43] = test system: A549 NSCLC
[44] = test system: RXF-631 renal
[45] = test system: NCI-H522 lung
[46] = test system: 786-0 renal
[47] = test system: HOP-92 NSCLC
[48] = test system: HOP-62 NSCLC
[49] = test system: NCI-H460 lung
[50] = test system: DMS 114 small cell lung
[51] = test system: LOX IMVI melanoma
[52] = test system: U251 CNS
[53] = test system: SR leukemia
[54] = test system: DLD-1 colon
[55] = test system: UACC-257 melanoma
[56] = test system: HCT-15 colon
[57] = test system: NCI-H226 lung

Q: `Cn1c(=O)c(C(c2ccc([N+](=O)[O-])cc2)c2c(O)c3ccccc3n(C)c2=O)cc2ccccc21` (configuration not stated) was tested. Which TGI [1] did it give?
A: The TGI was 85.1 µM.

Q: What about the TGI [2] of the same compound?
A: The TGI was 73.2 µM.

Q: And the TGI [3]?
A: Its TGI is greater than 100 µM.

Q: And the TGI [4]?
A: Its TGI is greater than 100 µM.

Q: What about the TGI [5] of the same compound?
A: Its TGI is greater than 100 µM.

Q: What about the TGI [6] of the same compound?
A: Its TGI is greater than 100 µM.

Q: What about the TGI [7] of the same compound?
A: Its TGI is greater than 100 µM.

Q: What about the TGI [8] of the same compound?
A: The TGI was 84.7 µM.

Q: And the TGI [9]?
A: Its TGI is greater than 100 µM.

Q: And the TGI [10]?
A: Its TGI is greater than 100 µM.

Q: What about the TGI [11] of the same compound?
A: The TGI was greater than 100 µM.

Q: And the TGI [12]?
A: The TGI was greater than 100 µM.

Q: And the TGI [13]?
A: The TGI was greater than 100 µM.

Q: And the TGI [14]?
A: Its TGI is greater than 100 µM.

Q: And the TGI [15]?
A: Its TGI is greater than 100 µM.

Q: What about the TGI [16] of the same compound?
A: Its TGI is greater than 100 µM.

Q: What about the TGI [17] of the same compound?
A: The TGI was greater than 100 µM.

Q: What about the TGI [18] of the same compound?
A: The TGI was greater than 100 µM.

Q: And the TGI [19]?
A: The TGI was greater than 100 µM.

Q: And the TGI [20]?
A: Its TGI is greater than 100 µM.

Q: And the TGI [21]?
A: The TGI was greater than 100 µM.

Q: And the TGI [22]?
A: Its TGI is greater than 100 µM.

Q: And the TGI [23]?
A: The TGI was greater than 100 µM.

Q: And the TGI [24]?
A: Its TGI is greater than 100 µM.

Q: What about the TGI [25] of the same compound?
A: Its TGI is 42.3 µM.

Q: And the TGI [26]?
A: Its TGI is greater than 100 µM.

Q: And the TGI [27]?
A: Its TGI is greater than 100 µM.

Q: What about the TGI [28] of the same compound?
A: Its TGI is 92.7 µM.

Q: And the TGI [29]?
A: The TGI was greater than 100 µM.

Q: And the TGI [30]?
A: Its TGI is greater than 100 µM.

Q: What about the TGI [31] of the same compound?
A: Its TGI is greater than 100 µM.

Q: What about the TGI [32] of the same compound?
A: The TGI was greater than 100 µM.

Q: And the TGI [33]?
A: Its TGI is greater than 100 µM.

Q: And the TGI [34]?
A: Its TGI is greater than 100 µM.

Q: What about the TGI [35] of the same compound?
A: Its TGI is greater than 100 µM.

Q: And the TGI [36]?
A: The TGI was greater than 100 µM.

Q: What about the TGI [37] of the same compound?
A: Its TGI is greater than 100 µM.

Q: What about the TGI [38] of the same compound?
A: The TGI was greater than 100 µM.

Q: And the TGI [39]?
A: The TGI was greater than 100 µM.

Q: And the TGI [40]?
A: The TGI was greater than 100 µM.

Q: What about the TGI [41] of the same compound?
A: Its TGI is greater than 100 µM.

Q: What about the TGI [42] of the same compound?
A: The TGI was greater than 100 µM.

Q: And the TGI [43]?
A: The TGI was greater than 100 µM.

Q: What about the TGI [44] of the same compound?
A: Its TGI is greater than 100 µM.

Q: What about the TGI [45] of the same compound?
A: Its TGI is greater than 100 µM.

Q: What about the TGI [46] of the same compound?
A: The TGI was greater than 100 µM.

Q: And the TGI [47]?
A: The TGI was greater than 100 µM.

Q: What about the TGI [48] of the same compound?
A: The TGI was 75.2 µM.

Q: And the TGI [49]?
A: The TGI was greater than 100 µM.

Q: What about the TGI [50] of the same compound?
A: The TGI was greater than 100 µM.

Q: What about the TGI [51] of the same compound?
A: Its TGI is greater than 100 µM.

Q: And the TGI [52]?
A: The TGI was 66.8 µM.

Q: What about the TGI [53] of the same compound?
A: The TGI was greater than 100 µM.

Q: What about the TGI [54] of the same compound?
A: Its TGI is greater than 100 µM.

Q: What about the TGI [55] of the same compound?
A: Its TGI is 45.3 µM.

Q: What about the TGI [56] of the same compound?
A: The TGI was greater than 100 µM.

Q: And the TGI [57]?
A: Its TGI is 64 µM.
